≈ marks a conversion by molar mass, not a printed value. Read-outs that look alike come from different tables or passages of the source.
Tests used:
Experiment in all cases: Resistance to biocides: conidial germination
Format in all cases: cell-based
[1] = test system: Indoor Trichoderma atroviride 14/AM; conditions: strain 14/AM, read-out: EC50
Method: (§1) The toxicity of biocides and chemicals towards the indoor Chaetomium-like isolates and the reference indoor strains of the genera Aspergillus, Paecilomyces, Penicillium and Trichoderma was assessed in parallel with the six parameters presented in the Supplementary Materials: (1) germ tube assay (Figure S3); (2) estimation of turbidity (Figure S4); (3) visual emission of fluorescence (excitation at 360 nm); (4) visual resporulation of conidia; (5) inhibition of glucose consumption; and (6) resazurin reduction. All assays were performed in malt extract broth (12 g L^−1 malt extract, 7.2 µmol mL^−1 glucose, pH 5.5; Scharlab, Barcelona, Spain) in 96-well microtiter plates as described for the ICP assay.
(§2) The assays measuring inhibition of germination of conidia were done with spore suspensions of 1–2 × 10^6 fungal spores mL−^1. The tests were performed in malt extract broth (Oxoid, Hampshire United Kingdom) 12 g in 1 L, pH 5.5, glucose 7.1 mmol L^−1, and performed on microtiter plates as described by Bencsik et al. for the ICP assay. The germ tube germination is visualized in Figure S3, and the tests estimating turbidity and emission of fluorescence provoked by the germinated and metabolically active conidia and C. globosum ascospores are visualized in Figures S4 and S5. Examples of the tests estimating fluorescence emission, turbidity and re-sporulation of conidia and ascospores are compared in Figure S5. The difference of the endpoints measured with the different assays was between […]. The resazurin reduction assays (Figure S6) were performed as described for the ICP assay, except that the microtiter plates were visually inspected for the change of the blue/violet color of resazurin (indicating inhibition of germination of the exposed conidia) to the […] (indicating metabolic activity and germination of the exposed conidia).
(§3) The formation of germ tubes was inspected by a phase-contrast microscope (Olympus CKX41, Tokyo, Japan; magnification 400×) and an image recording software (Cellsense® standard version 11.0.06, Olympus Soft Imaging Solutions GmbH, Münster, Germany, 2012) after 1 and 2 days of incubation at 28 °C. The EC50 corresponded to the inhibition of 50% (estimated as the concentration between EC0 and EC100) of the conidia compared to the ethanol control (the growth medium containing 1% of ethanol). The tests were run in triplicate and calibrated with triclosan (CAS: 3380-34-5; Sigma Chemical Co., St. Louis, MO, USA) giving a mean SD of ±<20%.

[2] = test system: Aspergillus section Nigri Asp33b; conditions: strain Asp33b, indoor Aspergillus section Nigri; read-out: EC50
Method: as §1, §2, §3

[3] = test system: Aspergillus calidoustus MH4; conditions: strain MH4, indoor Aspergillus calidoustus; read-out: EC50
Method: as §1, §2, §3

[4] = test system: Aspergillus westerdijkiae AW/KL; conditions: strain AW/KL
Method: as §1, §2, §3

[5] = test system: Penicillium sp. 20b/skk; conditions: strain 20b/skk, indoor Penicillium sp.
Method: as §1, §2, §3

[6] = test system: Penicillium sp. HJ2; conditions: strain HJ2, indoor Penicillium sp.; read-out: EC50
Method: as §1, §2, §3

[7] = test system: Penicillium sp. 26/skk; conditions: strain 26/skk, indoor Penicillium sp.
Method: as §1, §2, §3

[8] = test system: Penicillium sp. 5/skk; conditions: strain 5/skk, indoor Penicillium sp.
Method: as §1, §2, §3

[9] = test system: Paecilomyces sp. Pec1/skk; conditions: strain Pec1/skk, indoor Paecilomyces sp.; read-out: EC50
Method: as §1, §2, §3

[10] = test system: Aspergillus westerdijkiae PP2; conditions: strain PP2, Aspergillus westerdijkiae
Method: as §1, §2, §3

[11] = test system: Aspergillus section Nigri Asp21; conditions: strain Asp21, indoor Aspergillus section Nigri; read-out: EC50
Method: as §1, §2, §3

[12] = test system: Aspergillus versicolor Gas/226; conditions: strain Gas/226, Aspergillus versicolor; read-out: EC50
Method: as §1, §2, §3

[13] = test system: Penicillium sp. Vaip/skk; conditions: strain Vaip/skk, indoor Penicillium sp.
Method: as §1, §2, §3

[14] = test system: Indoor Trichoderma atroviride KIV10; conditions: strain KIV10, indoor Trichoderma atroviride
Method: as §1, §2, §3

[15] = test system: Trichoderma longibrachiatum THG; conditions: strain THG, indoor Trichoderma longibrachiatum; read-out: EC50
Method: as §1, §2, §3

[16] = test system: Paecilomyces sp. Pec1/his; conditions: strain Pec1/his, indoor Paecilomyces sp.; read-out: EC50
Method: as §1, §2, §3

[17] = test system: Aspergillus section Flavi 7D; conditions: strain 7D, indoor Aspergillus section Flavi
Method: as §1, §2, §3

[18] = test system: Aspergillus section Flavi 1/37; conditions: strain 1/37, indoor Aspergillus section Flavi
Method: as §1, §2, §3

[19] = test system: Paecilomyces variotii Pac1/kop; conditions: strain Pac1/kop, indoor Paecilomyces variotii; read-out: EC50
Method: as §1, §2, §3

[20] = test system: Paecilomyces variotii Pac2/kop; conditions: strain Pac2/kop, indoor Paecilomyces variotii; read-out: EC50
Method: as §1, §2, §3

[21] = test system: Indoor Trichoderma atroviride Tri7A/SKK; conditions: strain Tri7A/SKK
Method: as §1, §2, §3

[22] = test system: Indoor Trichoderma atroviride H1/226; conditions: strain H1/226, indoor Trichoderma atroviride; read-out: EC50
Method: as §1, §2, §3

[23] = test system: Indoor Trichoderma atroviride Ke14; conditions: strain Ke14, indoor Trichoderma atroviride; read-out: EC50
Method: as §1, §2, §3

[24] = test system: Aspergillus versicolor SL/3; conditions: strain SL/3, Aspergillus versicolor
Method: as §1, §2, §3

[25] = test system: Penicillium sp. 35/skk; conditions: strain 35/skk, indoor Penicillium sp.
Method: as §1, §2, §3

Oc1cc(Cl)ccc1Oc1ccc(Cl)cc1Cl [Triclosan, 5-Chloro-2-(2,4-dichlorophenoxy)phenol]
EC50 [1]: 30 µg/mL (≈ 104 µM)
EC50 [2]: 16 µg/mL (≈ 55.3 µM)
EC50 [3]: 16 µg/mL (≈ 55.3 µM)
EC50 ([4]; read-out: EC50): 16 µg/mL (≈ 55.3 µM)
EC50 ([5]; SP.20B/SKK, read-out: EC50): 2 µg/mL (≈ 6.91 µM)
EC50 [6]: 8 µg/mL (≈ 27.6 µM)
EC50 ([7]; SP.26/SKK, read-out: EC50): 30 µg/mL (≈ 104 µM)
EC50 ([8]; SP.5/SKK, read-out: EC50): 2 µg/mL (≈ 6.91 µM)
EC50 [9]: 4 µg/mL (≈ 13.8 µM)
EC50 ([10]; read-out: EC50): 16 µg/mL (≈ 55.3 µM)
EC50 [11]: 30 µg/mL (≈ 104 µM)
EC50 [12]: 16 µg/mL (≈ 55.3 µM)
EC50 ([13]; read-out: EC50): 4 µg/mL (≈ 13.8 µM)
EC50 ([14]; read-out: EC50): 30 µg/mL (≈ 104 µM)
EC50 [15]: 16 µg/mL (≈ 55.3 µM)
EC50 [16]: 30 µg/mL (≈ 104 µM)
EC50 ([17]; FLAVI7D, read-out: EC50): 8 µg/mL (≈ 27.6 µM)
EC50 ([18]; FLAVI1/37, read-out: EC50): 8 µg/mL (≈ 27.6 µM)
EC50 [19]: 4 µg/mL (≈ 13.8 µM)
EC50 [20]: 4 µg/mL (≈ 13.8 µM)
EC50 ([21]; read-out: EC50): 16 µg/mL (≈ 55.3 µM)
EC50 [22]: 16 µg/mL (≈ 55.3 µM)
EC50 [23]: 16 µg/mL (≈ 55.3 µM)
EC50 ([24]; read-out: EC50): 16 µg/mL (≈ 55.3 µM)

NCl [Chloramine, chloramine]
EC50 [4]: 600 µg/mL (≈ 11700 µM)
EC50 [5]: 600 µg/mL (≈ 11700 µM)
EC50 [7]: 600 µg/mL (≈ 11700 µM)
EC50 [8]: 600 µg/mL (≈ 11700 µM)
EC50 [10]: 600 µg/mL (≈ 11700 µM)
EC50 [13]: 600 µg/mL (≈ 11700 µM)
EC50 [14]: 2400 µg/mL (≈ 46600 µM)
EC50 [17]: 600 µg/mL (≈ 11700 µM)
EC50 [18]: 600 µg/mL (≈ 11700 µM)
EC50 [25]: 600 µg/mL (≈ 11700 µM)
EC50 [21]: 2500 µg/mL (≈ 48600 µM)
EC50 [24]: 600 µg/mL (≈ 11700 µM)

Reference: paper PMC7405012, “Detection of Chaetomium globosum, Ch. cochliodes and Ch. rectangulare during the Diversity Tracking of Mycotoxin-Producing Chaetomium-like Isolates Obtained in Buildings in Finland” (Toxins, 2020)
